# Measured values published in publication PMC8214221, “Sequence determinants in the cathelicidin LL-37 that promote inflammation via presentation of RNA to scavenger receptors” (The Journal of Biological Chemistry, 2021).
# Residues, ends and D or L forms follow the SMILES beside them.
# Columns and labels:
# [1] = test system: NHEKs, IL6, IFNB1, TSLP, CXCL10 mRNA; experiment: qRT-PCR gene expression in NHEKs; type: cell-based, human; settings: 18 h / 8 h (Fig. 1 legend), n = 3; for Gene expression of IL6, IFNB1, and CXCL10, cotreatment with U1 dsRNA: U1 dsRNA 2.5 μg/ml + peptide 2 μM; for Gene expression of TSLP, peptide alone / Basal expression of IL6, IFNB1, and CXCL10, peptide alone: peptide 2 μM alone; for Gene expression of TSLP, peptide alone: GAPDH reference
# Experimental: Protein levels of human IL-6 were analyzed from cell supernatant with ELISA (n = 3). Corresponding MIC values of LL-34 peptides L1A–R34A against Staphylococcus aureus USA300 are shown in the heat map. B, human dermal endothelial cells (HDMECs) were treated with either U1 dsRNA (2.5 μg/ml) or a combination of U1 dsRNA (2.5 μg/ml) and LL-34 peptides (Pep 1–Pep 34 and Pep–parent LL-34) at 2 μM for 18 h. IL-6 ELISA results are shown (n = 3). Green bars denote loss of IL-6 protein secretion compared with parent control shown in red. C, helical wheel plot for LL-34. Amino acids with green circles denote specific residues where replacement with an alanine caused the loss of IL-6 secretion compared with parent LL-34 peptide in NHEKs cotreated with U1 dsRNA. D, in the helical wheel plot for LL-34, circled green amino acids indicate that a substitution caused a loss of vetting in HDMEC. E–H, NHEKs were treated with LL-34-parent peptide (LL-34-P), LL-34-F5A, LL-34-I24A, LL-34-F27A, and LL-34-L31A at 2 μM, either individually or in combination with U1 dsRNA (2.5 μg/ml) for 8 h. Gene expression of IL-6, IFNB1, TSLP, and CXCL10 was assessed with qRT-PCR. GAPDH was used as a reference gene (n = 3) (∗p < 0.05; ∗∗∗∗p < 0.0001). One way-ANOVA was used. IL-6, interleukin 6; LL-34, 34-amino acid peptide; MIC, minimum inhibitory concentration, ns, not significant.
# We further looked at mRNA abundance by quantitative RT-PCR (qRT-PCR) to evaluate gene expression for type 1 interferon IFNB1, chemokine CXCL10, and cytokines TSLP and IL6 in NHEKs treated with selected LL-34 parent, LL-34—F5A, I24A, F27A, and L31A—peptides either alone or in combination with U1 dsRNA for 18 h (Fig. 1, E–H).
# RNA extracted from cells (Pure Link RNA Isolation Kit; Life Technologies) was quantified on the Nanodrop 2000/200C Spectrophotometer (Thermo Fisher Scientific). About 500 ng of purified RNA was used to synthesize complementary DNA with iScript cDNA Synthesis Kit (Bio-Rad). Predeveloped Taqman (Thermo Fisher Scientific) gene expression assays were used to evaluate mRNA transcript levels. Taqman cycling conditions were used as previously described ([9], [45]). All experiments were performed on a CFX96 system (Bio-Rad). Fold change relative to GAPDH was calculated using the Livak ΔΔCt method ([46]).
# [2] = test system: NHEKs, differentially expressed genes; experiment: RNA-Seq transcriptomic profile of NHEKs; type: cell-based, human; settings: U1 + peptide in comparison to U1 + LL-34 parent, protein-protein interaction networks from RNA-Seq
# Excerpt: RNA-Seq was utilized to obtain a global transcriptomic profile and map unique immune pathways in NHEKs exposed to U1 dsRNA, LL-34 parent, Pep I24A, Pep L31A, and a combination of U1 dsRNA and LL-34 parent, Pep I24A, or Pep L31A. […] Similarly, 448 and 325 unique differentially regulated genes were observed after U1 + I24A and U1 + L31A treatments, respectively (Fig. 3, A and B and Fig. S2, A and B). […] These pathways included type 1 interferon signaling, cytokine signaling, response to external biotic stimulus, and cytokine-mediated signaling pathway. […] We verified the repression of mitochondrial antiviral signaling (MAVS) with immunoblot analysis. NHEKs were treated with U1 dsRNA, LL-34 parent, Pep I24A, Pep L31A, or with a combination of U1 and LL-34 parent, U1 and Pep I24A, or U1 and Pep L31A (Fig. 3E).
# RNA was extracted using a PureLink RNA Mini Kit (Life Technologies). Isolated RNA was submitted to the UCSD IGM Genomics Center for RNA-Seq performed on a high-output run V4 platform (Illumina) with a single-read 100 cycle runs. Data alignment was done on Partek Flow software (Partek) with Tophat2 (version 2.0.8). Gene Ontology enrichment analysis was performed on differentially regulated genes (≥1.5-fold) using Partek Flow software. The protein–protein interaction network was generated in the InnateDB database ([44]).
smiles,measurement,setting,value
CC[C@H](C)[C@H](NC(=O)[C@H](CCCCN)NC(=O)[C@H](CCC(=O)O)NC(=O)[C@H](CCCCN)NC(=O)[C@H](CO)NC(=O)[C@H](CCCCN)NC(=O)[C@H](CCCNC(=N)N)NC(=O)[C@H](Cc1ccccc1)NC(=O)[C@H](Cc1ccccc1)NC(=O)[C@H](CC(=O)O)NC(=O)CNC(=O)[C@H](CC(C)C)NC(=O)[C@@H](N)CC(C)C)C(=O)NCC(=O)N[C@@H](CCCCN)C(=O)N[C@@H](CCC(=O)O)C(=O)N[C@@H](Cc1ccccc1)C(=O)N[C@@H](CCCCN)C(=O)N[C@@H](CCCNC(=N)N)C(=O)N[C@H](C(=O)N[C@H](C(=O)N[C@@H](CCC(N)=O)C(=O)N[C@@H](CCCNC(=N)N)C(=O)N[C@@H](C)C(=O)N[C@@H](CCCCN)C(=O)N[C@@H](CC(=O)O)C(=O)N[C@@H](Cc1ccccc1)C(=O)N[C@@H](CC(C)C)C(=O)N[C@@H](CCCNC(=N)N)C(=O)N[C@@H](CC(N)=O)C(=O)N[C@@H](CC(C)C)C(=O)N[C@H](C(=O)N1CCC[C@H]1C(=O)N[C@@H](CCCNC(=N)N)C(=O)O)C(C)C)C(C)C)[C@@H](C)CC [LL-34—I24A] (H-LLGDFFRKSKEKIGKEFKRIVQRAKDFLRNLVPR-OH),"Gene expression of IL6, IFNB1, and CXCL10, cotreatment with U1 dsRNA",[1],reduction in gene expression
same,"Gene expression of TSLP, peptide alone",[1],increased gene expression of TSLP
same,"Basal expression of IL6, IFNB1, and CXCL10, peptide alone",[1],not affected
same,"Type I interferon signaling and RIGI antiviral pathway genes (STAT, ISG15, OAS1, IRF2, DDX58, MAVS)",[2],repressed
CC[C@H](C)[C@H](NC(=O)[C@H](CCCCN)NC(=O)[C@H](CCC(=O)O)NC(=O)[C@H](CCCCN)NC(=O)[C@H](CO)NC(=O)[C@H](CCCCN)NC(=O)[C@H](CCCNC(=N)N)NC(=O)[C@H](Cc1ccccc1)NC(=O)[C@H](Cc1ccccc1)NC(=O)[C@H](CC(=O)O)NC(=O)CNC(=O)[C@H](CC(C)C)NC(=O)[C@@H](N)CC(C)C)C(=O)NCC(=O)N[C@@H](CCCCN)C(=O)N[C@@H](CCC(=O)O)C(=O)N[C@@H](Cc1ccccc1)C(=O)N[C@@H](CCCCN)C(=O)N[C@@H](CCCNC(=N)N)C(=O)N[C@H](C(=O)N[C@H](C(=O)N[C@@H](CCC(N)=O)C(=O)N[C@@H](CCCNC(=N)N)C(=O)N[C@H](C(=O)N[C@@H](CCCCN)C(=O)N[C@@H](CC(=O)O)C(=O)N[C@@H](Cc1ccccc1)C(=O)N[C@@H](CC(C)C)C(=O)N[C@@H](CCCNC(=N)N)C(=O)N[C@@H](CC(N)=O)C(=O)N[C@@H](C)C(=O)N[C@H](C(=O)N1CCC[C@H]1C(=O)N[C@@H](CCCNC(=N)N)C(=O)O)C(C)C)[C@@H](C)CC)C(C)C)[C@@H](C)CC [LL-34—L31A] (H-LLGDFFRKSKEKIGKEFKRIVQRIKDFLRNAVPR-OH),"Gene expression of IL6, IFNB1, and CXCL10, cotreatment with U1 dsRNA",[1],reduction in gene expression
same,"Gene expression of TSLP, peptide alone",[1],increased gene expression of TSLP
same,"Basal expression of IL6, IFNB1, and CXCL10, peptide alone",[1],not affected
